# According to patent publication US8470822B2, “Folate mimetics and folate-receptor binding conjugates thereof” (Purdue Research Foundation, priority 2001, dated 2013):
# Several values for one entry are separate records, joined by “and”; a condition that tells them apart may be missing. Equal values may be shown once.
# System: folate-receptor-positive human KB cell tumor xenografts
# Test: Biodistribution of 111In radiotracer in KB tumor-bearing athymic mice after intravenous administration
# Format: in vivo
# Details: for Percentage of Injected 111In Dose Per Organ (Tissue): Muscle: muscle assumed 42% of body mass
# Experimental: Our primary animal model for evaluation of the biodistribution and pharmacokinetics of folate-receptor-targeted radiopharmaceuticals has been athymic mice bearing subcutaneously implanted folate-receptor-positive human KB cell tumors. […] After 3 weeks on folate-free diet, mouse serum folate levels drop to 25±7 nM from the initial 720±260 nM serum folate level when the animals are fed normal rodent chow. This dietary intervention is believed to be a reasonable manipulation of the animal model, since the mice would have serum folate levels only slightly higher than the folate concentration of normal human serum. Thus, in these mouse biodistribution studies the radiotracer is competing for tumor folate receptors with physiologically relevant concentrations of endogenous unlabeled serum folate.
# The substantial retention of ^111In in the kidneys is fully consistent with the binding of ^111In-CYK4-013 to tissue folate receptors, since the renal proximal tubule is a known normal tissue site of folate receptor expression. […] The behavior of the ^111In-CYK4-013 radiopharmaceutical in this animal model (Table 2) is very similar to that observed for ^111In-DTPA-Folate (Table 3).
# Results. Similar to ^111In-DTPA-Folate, ^111In-CYK4-013 selectively localized in the folate-receptor-positive tumor xenografts, and afforded prolonged tumor retention of ^111In (5.4±0.8; 5.5±1.1; and 3.6±0.6% ID/g at 1 hour, 4 hours, and 24 hours, respectively) (Table 2). […] Blockable binding was also observed in the kidneys, where the folate receptor occurs in the proximal tubules.
# [1] = 1 Hour after intravenous administration
# [2] = 4 Hours after intravenous administration
compound,measurement,setting,value
Nc1nc(O)c2nc(CNc3ccc(C(=O)NCCOCCOCCNC(=O)CN(CCN(CCN(CC(=O)O)CC(=O)O)CC(=O)O)CC(=O)O)cc3)cnc2n1.[111In+3] [^111In-CYK4-013],Percentage of Injected 111In Dose Per Gram (Tissue Wet Mass): Blood,[1],0.18 ± 0.01 % ID/g
same,Percentage of Injected 111In Dose Per Gram (Tissue Wet Mass): Heart,[1],3.5 ± 0.4 % ID/g
same,Percentage of Injected 111In Dose Per Gram (Tissue Wet Mass): Kidney (one),[1],61 ± 5 % ID/g
same,Percentage of Injected 111In Dose Per Gram (Tissue Wet Mass): Liver & Gall Bladder,[1],4.3 ± 0.7 % ID/g
same,Percentage of Injected 111In Dose Per Gram (Tissue Wet Mass): Lungs,[1],1.5 ± 0.2 % ID/g
same,Percentage of Injected 111In Dose Per Gram (Tissue Wet Mass): Muscle,[1],3.5 ± 0.5 % ID/g
same,Percentage of Injected 111In Dose Per Gram (Tissue Wet Mass): Spleen,[1],0.31 ± 0.09 % ID/g
same,"Percentage of Injected 111In Dose Per Gram (Tissue Wet Mass): Stomach, Intestines & Contents",[1],1.7 ± 0.2 % ID/g
same,Percentage of Injected 111In Dose Per Gram (Tissue Wet Mass): Tumor,[1],5.4±0.8 % ID/g
same,Percentage of Injected 111In Dose Per Organ (Tissue): Blood,[1],0.29 ± 0.003 Percentage of Injected 111In D
same,Percentage of Injected 111In Dose Per Organ (Tissue): Heart,[1],0.51 ± 0.09 Percentage of Injected 111In D
same,Percentage of Injected 111In Dose Per Organ (Tissue): Kidney (one),[1],15.3 ± 1.2 Percentage of Injected 111In D
same,Percentage of Injected 111In Dose Per Organ (Tissue): Liver & Gall Bladder,[1],6.8 ± 1.3 Percentage of Injected 111In D
same,Percentage of Injected 111In Dose Per Organ (Tissue): Lungs,[1],0.69 ± 0.06 Percentage of Injected 111In D
same,Percentage of Injected 111In Dose Per Organ (Tissue): Spleen,[1],0.063 ± 0.016 Percentage of Injected 111In D
same,"Percentage of Injected 111In Dose Per Organ (Tissue): Stomach, Intestines & Contents",[1],5.8 ± 0.5 Percentage of Injected 111In D
same,Percentage of Injected 111In Dose Per Organ (Tissue): Tumor,[1],0.78 ± 0.47 Percentage of Injected 111In D
same,Tumor/blood ratio,[1],30 ± 5
same,Tumor/kidney ratio,[1],0.088 ± 0.013
same,Tumor/liver ratio,[1],1.3 ± 0.4
same,Tumor/muscle ratio,[1],1.6 ± 0.4
same,Percentage of Injected 111In Dose Per Organ (Tissue): Muscle,[1],43.6 ± 4.1 Percentage of Injected 111In D
same,Percentage of Injected 111In Dose Per Gram (Tissue Wet Mass): Blood,[2],0.050 ± 0.009 % ID/g
same,Percentage of Injected 111In Dose Per Gram (Tissue Wet Mass): Heart,[2],2.9 ± 0.9 % ID/g
same,Percentage of Injected 111In Dose Per Gram (Tissue Wet Mass): Kidney (one),[2],81 ± 7 % ID/g
same,Percentage of Injected 111In Dose Per Gram (Tissue Wet Mass): Liver & Gall Bladder,[2],1.9 ± 0.6 % ID/g
same,Percentage of Injected 111In Dose Per Gram (Tissue Wet Mass): Lungs,[2],1.4 ± 0.3 % ID/g
same,Percentage of Injected 111In Dose Per Gram (Tissue Wet Mass): Muscle,[2],2.8 ± 0.8 % ID/g
same,Percentage of Injected 111In Dose Per Gram (Tissue Wet Mass): Spleen,[2],0.29 ± 0.07 % ID/g
same,"Percentage of Injected 111In Dose Per Gram (Tissue Wet Mass): Stomach, Intestines & Contents",[2],1.5 ± 0.9 % ID/g
same,Percentage of Injected 111In Dose Per Gram (Tissue Wet Mass): Tumor,[2],5.5±1.1 % ID/g and 5.6 ± 1.1 % ID/g
same,Percentage of Injected 111In Dose Per Organ (Tissue): Blood,[2],0.078 ± 0.010 Percentage of Injected 111In D
same,Percentage of Injected 111In Dose Per Organ (Tissue): Heart,[2],0.41 ± 0.08 Percentage of Injected 111In D
same,Percentage of Injected 111In Dose Per Organ (Tissue): Kidney (one),[2],20.2 ± 1.6 Percentage of Injected 111In D
same,Percentage of Injected 111In Dose Per Organ (Tissue): Liver & Gall Bladder,[2],3.0 ± 1.0 Percentage of Injected 111In D
same,Percentage of Injected 111In Dose Per Organ (Tissue): Lungs,[2],0.60 ± 0.01 Percentage of Injected 111In D
same,Percentage of Injected 111In Dose Per Organ (Tissue): Spleen,[2],0.049 ± 0.012 Percentage of Injected 111In D
same,"Percentage of Injected 111In Dose Per Organ (Tissue): Stomach, Intestines & Contents",[2],5.4 ± 0.8 Percentage of Injected 111In D
same,Percentage of Injected 111In Dose Per Organ (Tissue): Tumor,[2],0.46 ± 0.26 Percentage of Injected 111In D
same,Tumor/blood ratio,[2],111 ± 11
same,Tumor/kidney ratio,[2],0.069 ± 0.013
same,Tumor/liver ratio,[2],3.0 ± 0.5
same,Tumor/muscle ratio,[2],2.1 ± 0.2
same,Percentage of Injected 111In Dose Per Organ (Tissue): Muscle,[2],33 ± 9 Percentage of Injected 111In D
same,Percentage of Injected 111In Dose Per Gram (Tissue Wet Mass): Blood,"4 Hours, Blocked: co-injection of folic acid dihydrate 4.1 ± 0.4 mg/kg",0.016 ± 0.010 % ID/g
